Reference: patent EP0626170A2, “Stabilisation of pharmacologically active compounds in sustained release compositions” (SANDOZ LTD., priority 1993, dated 1994)

Assay: Stability of compound A microspheres: degradation products by HPLC after manufacture, γ-irradiation and storage
Format: physicochemical
Settings: for Increase of degradation product (%) after storage at 5°C / Increase of degradation product (%) after storage at 25°C: further increase (+) on storage; for degradation: during manufacture, sterilization and 1 month storage (5°C); for Increase of degradation product (%) after man. + γ-irrad. / Increase of degradation product (%) after manufacture: microspheres, pilot batches
Method: Microparticles were produced by a modified triple-emulsion technique. Compound A pamoate salt was dispersed in a small amount of water (14 mg pamoate salt in 0.1 ml) and the dispersion was intensively homogenized using an Ultra-Turrax T25 (Janke & Kunkel IKA-Werk) into a solution (10-25%) of DL-PLG-GLU in methylene chloride (emulsion process). Alternatively, compound A pamoate salt was directly dispersed into the solution of polymer in methylene chloride (suspension process). The resulting primary water/oil (W/O) emulsion or suspension (S/O) was then intensively mixed with the external phase (in a ratio of 1:40), a gelatin containing aqueous solution. After stirring for one hour in order to evaporate the methylene chloride, the generated microspheres were collected by filtration, washed with water and dried under high vacuum at room temperature for 1 - 3 days. Storage was effected at 5°C. Sterilization was effected by γ-irridation (25 kGy required) by using nitrogen as a protecting gas.
Compound A content and purity of the microparticles was determined by HPLC (RP-18 columns, acetonitril - tetramethyl ammonium hydroxide/water gradient) after extraction of the peptide from the microspheres using tetrahydrofuran acetate buffer, pH 4.2 (1:1).
The generation of degradation products of compound A during the manufacture process, γ-irradiation and subsequent strorage at various temperatures is represented in Table 2. Potential stability problems arose with the acetate and the phosphate salts of compound A: during manufacture, sterilization and 1 month storage (5°C) 5 - 10% degradation occurred. These problems could be circumvented by the use of the pamoate. After manufacture, sterilization and three months of storage even at 25°C there was an increase of degradation products of less than 1.5%, more particularly of less than 0.5% after manufacture, less than 1.0% from the beginning of manufacture to just after irradiation and , inclusive of storage for 3 months at 25°C less than 1.5%.

SMILES	Increase of degradation product (%) after storage at 5°C (1 month)	Increase of degradation product (%) after storage at 25°C (1 month)	degradation	Increase of degradation product (%) after man. + γ-irrad.	Increase of degradation product (%) after manufacture	Increase of degradation product (%) after storage at 5°C (3 months)	Increase of degradation product (%) after storage at 25°C (3 months)	increase of degradation products (after manufacture)	increase of degradation products (after manufacture, sterilization and three months of storage at 25°C)	increase of degradation products (from the beginning of manufacture to just after irradiation)
CC(=O)N[C@H](Cc1ccc2ccccc2c1)C(=O)N[C@H](Cc1ccc(Cl)cc1)C(=O)N[C@H](Cc1c[nH]c2ccccc12)C(=O)N[C@@H](CO)C(=O)N[C@@H](Cc1ccc(O)cc1)C(=O)N[C@H](CCCCNCC(O)CO)C(=O)N[C@@H](CC(C)C)C(=O)N[C@@H](CCCCNCC(O)CO)C(=O)N1CCC[C@H]1C(=O)N[C@H](C)C(N)=O (single isomer, unassigned) [Compound A acetate]	+ 0.6%	+ 1.3%	5 - 10%	4.2 - 8.3%	0.4 - 4.2%					
CC(=O)N[C@H](Cc1ccc2ccccc2c1)C(=O)N[C@H](Cc1ccc(Cl)cc1)C(=O)N[C@H](Cc1c[nH]c2ccccc12)C(=O)N[C@@H](CO)C(=O)N[C@@H](Cc1ccc(O)cc1)C(=O)N[C@H](CCCCNCC(O)CO)C(=O)N[C@@H](CC(C)C)C(=O)N[C@@H](CCCCNCC(O)CO)C(=O)N1CCC[C@H]1C(=O)N[C@H](C)C(N)=O (single isomer, unassigned) [Compound A pamoate]				0.4 - 0.8%	0.1 - 0.4%	+ 0.4%	+ 0.6%	less than 0.5%	less than 1.5%	less than 1.0%
CC(=O)N[C@H](Cc1ccc2ccccc2c1)C(=O)N[C@H](Cc1ccc(Cl)cc1)C(=O)N[C@H](Cc1c[nH]c2ccccc12)C(=O)N[C@@H](CO)C(=O)N[C@@H](Cc1ccc(O)cc1)C(=O)N[C@H](CCCCNCC(O)CO)C(=O)N[C@@H](CC(C)C)C(=O)N[C@@H](CCCCNCC(O)CO)C(=O)N1CCC[C@H]1C(=O)N[C@H](C)C(N)=O (single isomer, unassigned) [Compound A phosphate]	+ 0.7%	+ 1.6%	5 - 10%	7.0 - 9.0%	1.2 - 3.5%					
